Values after ≈ are worked out from the molar mass of the structure shown.
Legend:
Format in all cases: cell-based
[1] = system: M. suipneumoniae PW/C/210; experiment: Anti-mycoplasmal in vitro MIC; details: Mesomycoplasma hyopneumoniae, 144 h, Friis broth solidified with 0.9% agarose, 6 days incubation at 37°C
Staph. aureus Oxford [2] = experiment: Human bacteria MIC; details: Staphylococcus aureus, nutrient agar with 5% chocolated horse blood, 18 hours at 37°C
Protocol: (§1) The values were determined by serial dilutions in nutrient agar with 5% chocolated horse blood after incubations for 18 hours at 37 °C.

E. Coli NCTC 10418 [3] = experiment: Human bacteria MIC; details: Escherichia coli, NCTC10418, nutrient agar with 5% chocolated horse blood, 18 hours at 37°C
Protocol: as §1

[4] = system: Neisseria catarrhalis 1502; experiment: Human bacteria MIC; details: nutrient agar with 5% chocolated horse blood, 18 hours at 37°C
Protocol: as §1

Staph. aureus Russell = experiment: Human bacteria MIC; details: Staphylococcus aureus, nutrient agar with 5% chocolated horse blood, 18 hours at 37°C
Protocol: as §1

Strep. faecalis I = experiment: Human bacteria MIC; details: Enterococcus faecalis, nutrient agar with 5% chocolated horse blood, 18 hours at 37°C
Protocol: as §1

E. coli ESS = experiment: Human bacteria MIC; details: Escherichia coli, nutrient agar with 5% chocolated horse blood, 18 hours at 37°C
Protocol: as §1

[5] = system: Corynebacterium xerosis 9755; experiment: Human bacteria MIC; details: nutrient agar with 5% chocolated horse blood, 18 hours at 37°C
Protocol: as §1

P. mirabilis 889 = experiment: Human bacteria MIC; details: Proteus mirabilis, nutrient agar with 5% chocolated horse blood, 18 hours at 37°C
Protocol: as §1

K. aerogenes A = experiment: Human bacteria MIC; details: Klebsiella aerogenes, nutrient agar with 5% chocolated horse blood, 18 hours at 37°C
Protocol: as §1

Staph. aureus W2827 = experiment: Human bacteria MIC; details: Staphylococcus aureus, nutrient agar with 5% chocolated horse blood, 18 hours at 37°C
Protocol: as §1

Strep. 641848-C = experiment: Human bacteria MIC; details: nutrient agar with 5% chocolated horse blood, 18 hours at 37°C
Protocol: as §1

[6] = system: Ps. aeruginosa NCTC 10662; experiment: Human bacteria MIC; details: Pseudomonas aeruginosa, NCTC10662, nutrient agar with 5% chocolated horse blood, 18 hours at 37°C
Protocol: as §1

Bacillus subtilis 6633 = experiment: Human bacteria MIC; details: nutrient agar with 5% chocolated horse blood, 18 hours at 37°C
Protocol: as §1

[7] = system: Pasteurella multocida 1633; experiment: Human bacteria MIC; details: nutrient agar with 5% chocolated horse blood, 18 hours at 37°C
Protocol: as §1

Sarcina lutea 8340 = experiment: Human bacteria MIC; details: Micrococcus luteus, nutrient agar with 5% chocolated horse blood, 18 hours at 37°C
Protocol: as §1

M. dispar NCTC 10125 = experiment: Anti-mycoplasmal in vitro MIC; details: 144 h, Friis broth solidified with 0.9% agarose, 6 days incubation at 37°C
Staph. aureus Oxford [8] = experiment: Veterinary bacteria MIC; details: Staphylococcus aureus, Diagnostic Sensitivity Test Agar, 18 hours at 37°C
Protocol: (§2) The values were determined using a two fold serial dilutions.in Diagnostic Sensitivity Test Agar with an inoculum of 10^4 organisms and incubation for 18 hours at 37°C.

E. Coli NCTC 10418 [9] = experiment: Veterinary bacteria MIC; details: Escherichia coli, NCTC10418, Diagnostic Sensitivity Test Agar, 18 hours at 37°C
Protocol: as §2

Past. multocida PA1 = experiment: Veterinary bacteria MIC; details: Pasteurella multocida, Diagnostic Sensitivity Test Agar, 18 hours at 37°C
Protocol: as §2

S. typhimurium S18 = experiment: Veterinary bacteria MIC; details: Salmonella enterica, Diagnostic Sensitivity Test Agar, 18 hours at 37°C
Protocol: as §2

Strep. uberis SPU1 = experiment: Veterinary bacteria MIC; details: Streptococcus uberis, Diagnostic Sensitivity Test Agar, 18 hours at 37°C
Protocol: as §2

[10] = system: Corynebacterium pyogenes CY1; experiment: Veterinary bacteria MIC; details: Trueperella pyogenes, Diagnostic Sensitivity Test Agar, 18 hours at 37°C
Protocol: as §2

[11] = system: Strep. suis (group D) SPS11; experiment: Veterinary bacteria MIC; details: Streptococcus suis, Diagnostic Sensitivity Test Agar, 18 hours at 37°C
Protocol: as §2

S. dublin S7 = experiment: Veterinary bacteria MIC; details: Salmonella enterica, Diagnostic Sensitivity Test Agar, 18 hours at 37°C
Protocol: as §2

Strep. agalactiae SPA1 = experiment: Veterinary bacteria MIC; details: Streptococcus agalactiae, Diagnostic Sensitivity Test Agar, 18 hours at 37°C
Protocol: as §2

Bord. bronchiseptica BO9 = experiment: Veterinary bacteria MIC; details: Bordetella bronchiseptica, Diagnostic Sensitivity Test Agar, 18 hours at 37°C
Protocol: as §2

[12] = system: Erysipelothrix rhusiopathiae NCTC 8163; experiment: Veterinary bacteria MIC; details: NCTC8163, Diagnostic Sensitivity Test Agar, 18 hours at 37°C
Protocol: as §2

Staph. aureus 152 = experiment: Veterinary bacteria MIC; details: Staphylococcus aureus, Diagnostic Sensitivity Test Agar, 18 hours at 37°C
Protocol: as §2

Bord. bronchiseptica BO8 = experiment: Veterinary bacteria MIC; details: Bordetella bronchiseptica, Diagnostic Sensitivity Test Agar, 18 hours at 37°C
Protocol: as §2

Strep. dysgalactiae SPD1 = experiment: Veterinary bacteria MIC; details: Streptococcus dysgalactiae, Diagnostic Sensitivity Test Agar, 18 hours at 37°C
Protocol: as §2

Past. haemolytica PA5 = experiment: Veterinary bacteria MIC; details: Mannheimia haemolytica, Diagnostic Sensitivity Test Agar, 18 hours at 37°C
Protocol: as §2

Staph. aureus B4 = experiment: Veterinary bacteria MIC; details: Staphylococcus aureus, Diagnostic Sensitivity Test Agar, 18 hours at 37°C
Protocol: as §2

E. Coli E1 = experiment: Veterinary bacteria MIC; details: Escherichia coli, Diagnostic Sensitivity Test Agar, 18 hours at 37°C
Protocol: as §2

Past. multocida PA2 = experiment: Veterinary bacteria MIC; details: Pasteurella multocida, Diagnostic Sensitivity Test Agar, 18 hours at 37°C
Protocol: as §2

M. gallisepticum S6 = experiment: Anti-mycoplasmal in vitro MIC; details: Mycoplasmoides gallisepticum, 144 h, Friis broth solidified with 0.9% agarose, 6 days incubation at 37°C
[13] = system: M. hyosynoviae ATCC 25591; experiment: Anti-mycoplasmal in vitro MIC; details: 144 h, Friis broth solidified with 0.9% agarose, 6 days incubation at 37°C
[14] = system: M. bovigenitalium ATCC 14173; experiment: Anti-mycoplasmal in vitro MIC; details: 144 h, Friis broth solidified with 0.9% agarose, 6 days incubation at 37°C
M. suipneumoniae LABER = experiment: Anti-mycoplasmal in vitro MIC; details: Mesomycoplasma hyopneumoniae, 144 h, Friis broth solidified with 0.9% agarose, 6 days incubation at 37°C

Row | Compound | MIC [1] [mg/L] | MIC (Staph. aureus Oxford [2]) [mg/L] | MIC (E. Coli NCTC 10418 [3]) [mg/L] | MIC [4] [mg/L] | MIC (Staph. aureus Russell) [mg/L] | MIC (Strep. faecalis I) [mg/L] | MIC (E. coli ESS) [mg/L] | MIC [5] [mg/L] | MIC (P. mirabilis 889) [mg/L] | MIC (K. aerogenes A) [mg/L] | MIC (Staph. aureus W2827) [mg/L] | MIC (Strep. 641848-C) [mg/L] | MIC [6] [mg/L] | MIC (Bacillus subtilis 6633) [mg/L] | MIC [7] [mg/L] | MIC (Sarcina lutea 8340) [mg/L] | MIC (M. dispar NCTC 10125) [mg/L] | MIC (Staph. aureus Oxford [8]) [mg/L] | MIC (E. Coli NCTC 10418 [9]) [mg/L] | MIC (Past. multocida PA1) [mg/L] | also measured
1 | C/C(=C\C(=O)OCc1ccccc1C#N)CC1OCC(CC2OC2C(C)C(C)O)C(O)C1O (stereo not drawn) [Example 1, o-Cyanobenzyl monate A] | 0.5 (≈ 1.09 µM) | 1 (≈ 2.18 µM) | > 100 | 0.5 (≈ 1.09 µM) | 1 (≈ 2.18 µM) | > 100 | 1 (≈ 2.18 µM) | > 100 | > 100 | > 100 | 2.5 (≈ 5.44 µM) | 1 (≈ 2.18 µM) | > 100 | 2.5 (≈ 5.44 µM) | 1 (≈ 2.18 µM) | > 100 | 0.25 (≈ 0.544 µM) | 1.25 (≈ 2.72 µM) | > 80 | 1.25 (≈ 2.72 µM) | MIC (S. typhimurium S18): > 80 mg/L; MIC (Strep. uberis SPU1): 0.156 mg/L (≈ 0.339 µM); MIC [10]: > 80 mg/L; MIC [11]: 10 mg/L (≈ 21.8 µM); MIC (S. dublin S7): > 80 mg/L; MIC (Strep. agalactiae SPA1): 2.5 mg/L (≈ 5.44 µM); MIC (Bord. bronchiseptica BO9): 10 mg/L (≈ 21.8 µM); MIC [12]: 80 mg/L (≈ 174 µM); MIC (Staph. aureus 152): 1.25 mg/L (≈ 2.72 µM); MIC (Bord. bronchiseptica BO8): > 80 mg/L; MIC (Strep. dysgalactiae SPD1): 0.312 mg/L (≈ 0.679 µM); MIC (Past. haemolytica PA5): 10 mg/L (≈ 21.8 µM); MIC (Staph. aureus B4): 1.25 mg/L (≈ 2.72 µM); MIC (E. Coli E1): > 80 mg/L; MIC (Past. multocida PA2): 0.156 mg/L (≈ 0.339 µM); MIC (M. gallisepticum S6): 2.5 mg/L (≈ 5.44 µM); MIC [13]: ≤ 0.01 mg/L; MIC [14]: ≤ 0.01 mg/L; MIC (M. suipneumoniae LABER): 0.5 mg/L (≈ 1.09 µM)
2 | C/C(=C\C(=O)OCc1cccc(C#N)c1)CC1OCC(CC2OC2C(C)C(C)O)C(O)C1O (stereo not drawn) [Example 2, m-Cyanobenzyl monate A] | 0.05 (≈ 0.109 µM) | 1 (≈ 2.18 µM) | 50 (≈ 109 µM) | 0.25 (≈ 0.544 µM) | 2.5 (≈ 5.44 µM) | 100 (≈ 218 µM) | 0.5 (≈ 1.09 µM) | > 100 | 100 (≈ 218 µM) | 100 (≈ 218 µM) | 1 (≈ 2.18 µM) | 1 (≈ 2.18 µM) | > 100 | 0.5 (≈ 1.09 µM) | 1 (≈ 2.18 µM) | > 100 | 0.025 (≈ 0.0544 µM) | 0.625 (≈ 1.36 µM) | 80 (≈ 174 µM) | 0.625 (≈ 1.36 µM) | MIC (S. typhimurium S18): 80 mg/L (≈ 174 µM); MIC (Strep. uberis SPU1): 0.312 mg/L (≈ 0.679 µM); MIC [10]: > 80 mg/L; MIC [11]: 2.5 mg/L (≈ 5.44 µM); MIC (S. dublin S7): 80 mg/L (≈ 174 µM); MIC (Strep. agalactiae SPA1): 0.625 mg/L (≈ 1.36 µM); MIC (Bord. bronchiseptica BO9): 10 mg/L (≈ 21.8 µM); MIC [12]: 20 mg/L (≈ 43.5 µM); MIC (Staph. aureus 152): 0.625 mg/L (≈ 1.36 µM); MIC (Bord. bronchiseptica BO8): 20 mg/L (≈ 43.5 µM); MIC (Strep. dysgalactiae SPD1): 0.312 mg/L (≈ 0.679 µM); MIC (Past. haemolytica PA5): 2.5 mg/L (≈ 5.44 µM); MIC (Staph. aureus B4): 1.25 mg/L (≈ 2.72 µM); MIC (E. Coli E1): 80 mg/L (≈ 174 µM); MIC (Past. multocida PA2): 0.156 mg/L (≈ 0.339 µM); MIC (M. gallisepticum S6): 2.5 mg/L (≈ 5.44 µM); MIC [13]: 0.05 mg/L (≈ 0.109 µM); MIC [14]: ≤ 0.01 mg/L; MIC (M. suipneumoniae LABER): 0.05 mg/L (≈ 0.109 µM)

Source: EP0052437A1, “Antibacterial compounds, processes for their preparation and compositions containing them” (BEECHAM GROUP PLC, priority 1980, dated 1982)
